Values of other authors in patent US20240016816A1, “COMBINATION THERAPY” (priority 2017, published 2024).

Legend:
[1] = system: eyelashes; conditions: patients using ophthalmic prostaglandins
[2] = system: hair loss; conditions: clinical trials

| Structure (SMILES) | effect on eyelashes [1] | efficacy, monotherapy comparison minoxidil vs finasteride [2] |
| --- | --- | --- |
| CCNC(=O)CCC/C=C\C[C@@H]1[C@@H](/C=C/[C@@H](O)CCc2ccccc2)[C@H](O)C[C@@H]1O [Bimatoprost, bimatoprost] | significantly increase eyelash length |  |
| CC(C)(C)NC(=O)[C@H]1CC[C@H]2[C@@H]3CC[C@H]4NC(=O)C=C[C@]4(C)[C@H]3CC[C@]12C [finasteride] |  | the more efficacious treatment option |
| CC(C)OC(=O)CCC/C=C\C[C@@H]1[C@@H](CC[C@@H](O)CCc2ccccc2)[C@H](O)C[C@@H]1O [latanoprost] | increase in diameter, density and length of eyelashes |  |
| CC(C)OC(=O)CCC/C=C\C[C@@H]1[C@@H](/C=C/[C@@H](O)COc2cccc(C(F)(F)F)c2)[C@H](O)C[C@@H]1O [travoprost] | increase in diameter, density and length of eyelashes |  |
